SMILES strings stand for the structures. Some results are limits rather than exact numbers.

This is an account of results in patent publication US10981926B2 (Janssen Pharmaceutica NV, priority 2016, dated 2021).

Assay [1] deals with T1, wild-type Androgen Receptor (AR-wt) (Homo sapiens (Human), UniProt P10275). The assay can be described thus: LNCaP-AR-wt ANT reporter assay (antagonist mode). The class given is cell-based. To be noted: for IC50: pIC50 = −Log10(IC50 in Molar), read-out: LNCaP-AR-wt ANT pIC50 (converted); for Emax: read-out: LNCaP-AR-wt ANT MAX % Inh.
Assay [2] has as its target T1, wild-type Androgen Receptor (AR-wt). Nature of the assay: LNCaP-AR-wt AG reporter assay (agonist mode). Type of assay: cell-based. To be noted: for EC50: pEC50 = −Log10(EC50 in Molar), read-out: LNCaP-AR-wt AG pEC50 (converted); for Emax: read-out: LNCaP-AR-wt AG MAX % Stim.
Assay [3] has as its target T2, F876L mutant Androgen Receptor (AR-F876L) (Homo sapiens (Human), UniProt P10275, F877L). Nature of the assay: LNCaP-AR-F876L ANT reporter assay (antagonist mode). The class given is cell-based. The note with it: for IC50: pIC50 = −Log10(IC50 in Molar), read-out: LNCaP-AR-F876L ANT pIC50 (converted); for Emax: read-out: LNCaP-AR-F876L ANT MAX % Inh.
The target of assay [4] is T2, F876L mutant Androgen Receptor (AR-F876L). The assay can be described thus: LNCaP-AR-F876L AG reporter assay (agonist mode). To be noted: for EC50: pEC50 = −Log10(EC50 in Molar), read-out: LNCaP-AR-F876L AG pEC50 (converted); for Emax: read-out: LNCaP-AR-F876L AG MAX % Stim. The class given is cell-based.
The test system of the next assay is rGABA-gated Cl− channel. Nature of the assay: GABA-Gated Cl Channel Antagonist Radioligand Binding Assay. Details: species or system rat. To be noted: 10 μM single point, [35S]-TBPS, cerebral cortex membrane homogenates. The procedure:
GABA-gated C1 Chanel assays were performed at CEREP according to the following method. Membrane homogenates of cerebral cortex (120 μg protein) were incubated for 120 min at 22° C. with 3 nM […] in the absence or presence of the test compound in a buffer containing 50 mM Na2HPO4/KH2PO4 (pH 7.4) and 500 mM NaCl. Nonspecific binding was determined in the presence of 20 μM picrotoxinin. Following incubation, the samples were filtered rapidly under vacuum through glass fiber filters (GF/B, Packard) presoaked with 0.3% PEI and rinsed several times with ice-cold 50 mM Tris-HCl using a 96-sample cell harvester (Unifilter, Packard). The filters were dried then counted for radioactivity in a scintillation counter (Topcount, Packard) using a scintillation cocktail (Microscint 0, Packard). The results are expressed as a percent inhibition of the control radio ligand specific binding. The standard reference compound is picrotoxinin, which was tested in each experiment at several concentrations to obtain a competition curve from which its IC50 was calculated. In this assay, the following representative compounds disclosed herein had recorded activities at a 10 μM single point concentration in the GABA-gated Cl— Channel Binding Assay.

The mark [5] stands for this setting: maximum % inhibition of R1881 control response over the tested concentration range.
Setting [6] is: maximum % stimulation (agonist response) over the tested concentration range.
Setting [7] is: antagonist mode, maximum % inhibition of R1881 control response over tested concentration range.
The mark [8] stands for this setting: agonist mode, maximum % stimulation over tested concentration range.

T2 sequence (P10275 whole entry F877L): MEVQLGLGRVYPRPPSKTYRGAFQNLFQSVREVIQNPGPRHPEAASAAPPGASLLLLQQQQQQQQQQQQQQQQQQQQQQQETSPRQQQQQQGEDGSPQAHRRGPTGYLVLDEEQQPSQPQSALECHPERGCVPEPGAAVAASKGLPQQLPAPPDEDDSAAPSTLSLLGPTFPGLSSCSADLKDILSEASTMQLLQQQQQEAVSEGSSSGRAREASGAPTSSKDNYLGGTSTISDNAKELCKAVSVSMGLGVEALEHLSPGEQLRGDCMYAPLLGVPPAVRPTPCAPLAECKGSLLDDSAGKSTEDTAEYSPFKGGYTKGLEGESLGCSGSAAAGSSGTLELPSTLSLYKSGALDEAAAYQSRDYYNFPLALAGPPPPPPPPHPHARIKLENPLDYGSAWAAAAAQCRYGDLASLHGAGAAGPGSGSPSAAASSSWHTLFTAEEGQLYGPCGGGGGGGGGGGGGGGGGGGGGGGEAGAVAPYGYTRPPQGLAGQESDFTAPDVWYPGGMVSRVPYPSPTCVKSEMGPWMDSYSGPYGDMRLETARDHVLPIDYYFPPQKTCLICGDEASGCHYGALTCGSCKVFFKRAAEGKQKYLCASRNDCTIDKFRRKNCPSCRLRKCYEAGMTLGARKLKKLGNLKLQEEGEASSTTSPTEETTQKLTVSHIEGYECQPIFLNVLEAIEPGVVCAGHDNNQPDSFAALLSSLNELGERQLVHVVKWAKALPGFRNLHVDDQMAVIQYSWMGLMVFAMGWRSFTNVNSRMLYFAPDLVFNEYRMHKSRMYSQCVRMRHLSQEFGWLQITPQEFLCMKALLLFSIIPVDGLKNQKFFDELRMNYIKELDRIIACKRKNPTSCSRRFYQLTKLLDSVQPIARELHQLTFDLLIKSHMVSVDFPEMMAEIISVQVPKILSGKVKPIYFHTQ
T1 sequence (P10275 whole entry): as the sequence (P10275 whole entry F877L) above, with L877F counted along it

Take `N#Cc1ncc(N2C(=O)C3(CCC3)N(c3ccc(OCC4CNCCO4)cc3)C2=S)cc1C(F)(F)F` (stereo not drawn) [Cpd 74, 5-[8-[4-(morpholin-2-ylmethoxy)phenyl]-5-oxo-7-thioxo-6,8-diazaspiro[3.4]octan-6-yl]-3-(trifluoromethyl)pyridine-2-carbonitrile]: the IC50 in assay [1] (antagonist mode) was 72.4 nM; in assay [3] (antagonist mode) it was 21.4 nM. In addition, the Emax is 100% in assay [1] (setting [5]), 0.2% in assay [2] (setting [6]), 98.1% in assay [3] (setting [5]) and 1.5% in assay [4] (setting [6]). Besides, the EC50 in assay [2] (agonist mode) and in assay [4] (agonist mode) was more than 15100 nM throughout. Moreover, the “rGABA-gated Cl− channel % inh @10 μM” value with rGABA-gated Cl− channel came out at 13.9%.

Consider `COCCn1cc2cc(N3C(=S)N(c4cnc(C#N)c(Cl)c4)C(=O)C34CCC4)ccc2n1` [Cpd 169, 3-chloro-5-[8-[2-(2-methoxyethyl)indazol-5-yl]-5-oxo-7-thioxo-6,8-diazaspiro[3.4]octan-6-yl]pyridine-2-carbonitrile], for which the figures for the IC50 in assay [1] (antagonist mode) and in assay [3] (antagonist mode) were 186 nM and 112 nM, respectively. The Emax in assay [1] (setting [5]) turned out to be 99.6%; in assay [2] (setting [6]), 0.2%; in assay [3] (setting [5]), 100%; in assay [4] (setting [6]), 0.2%. For the same compound, the EC50 in assay [2] (agonist mode) and in assay [4] (agonist mode) was more than 15100 nM throughout. Further, the “rGABA-gated Cl− channel % inh @10 μM” value in the assay on rGABA-gated Cl− channel is given as 80.8%.

Consider `C=CCN1CCC(Oc2ccc(N3C(=S)N(c4cnc(C#N)c(C(F)(F)F)c4)C(=O)C34CCC4)cn2)CC1` [Cpd 88, 5-[8-[6-[(1-allyl-4-piperidyl)oxy]-3-pyridyl]-5-oxo-7-thioxo-6,8-diazaspiro[3.4]octan-6-yl]-3-(trifluoromethyl)pyridine-2-carbonitrile], for which the IC50 in assay [1] (antagonist mode) is 74.1 nM; in assay [3] (antagonist mode) it was 33.1 nM. The Emax in assay [1] (setting [5]) came to 102%; in assay [2] (setting [6]), 0.4%; in assay [3] (setting [5]), 99.5%; in assay [4] (setting [6]), 0.4%. Moreover, the EC50 in assay [2] (agonist mode) and in assay [4] (agonist mode) was more than 15100 nM in each case. Further, the “rGABA-gated Cl− channel % inh @10 μM” value with rGABA-gated Cl− channel stood at 49.7%.

`CN1CCC(Sc2ccc(N3C(=S)N(c4cnc(C#N)c(C(F)(F)F)c4)C(=O)C34CCC4)cc2)CC1` [Cpd 242, 5-[8-[4-[(1-methyl-4-piperidyl)sulfanyl]phenyl]-5-oxo-7-thioxo-6,8-diazaspiro[3.4]octan-6-yl]-3-(trifluoromethyl)pyridine-2-carbonitrile]: the Emax was 99.9% in assay [1] (setting [7]), 0.1% in assay [2] (setting [8]), 104% in assay [3] (setting [7]) and -0.1% in assay [4] (setting [8]). The values for the IC50 in assay [1] (antagonist mode) and in assay [3] (antagonist mode) were 562 nM and 245 nM, respectively. In addition, the EC50 in assay [2] (agonist mode) and in assay [4] (agonist mode) was more than 15100 nM each time. Moreover, the “rGABA-gated Cl− channel % inh @10 μM” value in the assay on rGABA-gated Cl− channel worked out at 60.2%.

For `CN(C)C1CCC(Oc2ccc(N3C(=S)N(c4cnc(C#N)c(C(F)(F)F)c4)C(=O)C34CCC4)cc2)CC1` (stereo not drawn) [Cpd 81, 5-[8-[4-[4-(dimethylamino)cyclohexoxy]phenyl]-5-oxo-7-thioxo-6,8-diazaspiro[3.4]octan-6-yl]-3-(trifluoromethyl)pyridine-2-carbonitrile], the IC50 in assay [1] (antagonist mode) is 28.2 nM; in assay [3] (antagonist mode), 17 nM. The Emax in assay [1] (setting [5]) was 102%; in assay [2] (setting [6]), 0.4%; in assay [3] (setting [5]) it was 101%; in assay [4] (setting [6]) it was 0.1%. Further, the EC50 in assay [2] (agonist mode) and in assay [4] (agonist mode) was more than 15100 nM throughout. Besides, in the assay with rGABA-gated Cl− channel, the “rGABA-gated Cl− channel % inh @10 μM” value turned out to be 28.8%.

With `C[N@+]1([O-])CC[C@@H](Oc2ccc(N3C(=S)N(c4cnc(C#N)c(C(F)(F)F)c4)C(=O)C34CCC4)cc2)CC1` [Cpd 191, 5-[8-[4-(1-methyl-1-oxido-piperidin-1-ium-4-yl)oxyphenyl]-5-oxo-7-thioxo-6,8-diazaspiro[3.4]octan-6-yl]-3-(trifluoromethyl)pyridine-2-carbonitrile], the Emax in assay [1] (setting [7]) is 99.4%; in assay [2] (setting [8]) it was -0.2%; in assay [3] (setting [7]), 99.8%; in assay [4] (setting [8]) it was 0%. Also, the IC50 in assay [1] (antagonist mode) was 1380 nM; in assay [3] (antagonist mode), 1120 nM. Further, the EC50 in assay [2] (agonist mode) and in assay [4] (agonist mode) was more than 15100 nM throughout. The “rGABA-gated Cl− channel % inh @10 μM” value with rGABA-gated Cl− channel is reported as 47.9%.

As to `Cc1cc(N2C(=O)C3(CCC3)N(c3ccc(OC4CCN(C)CC4)nc3)C2=S)cnc1C#N` [Cpd 2, 3-methyl-5-[8-[6-[(1-methyl-4-piperidyl)oxy]-3-pyridyl]-5-oxo-7-thioxo-6,8-diazaspiro[3.4]octan-6-yl]pyridine-2-carbonitrile], the IC50 in assay [1] (antagonist mode) was 245 nM; in assay [3] (antagonist mode), 123 nM. The Emax in assay [1] (setting [5]) was 101%; in assay [2] (setting [6]), 0.5%; in assay [3] (setting [5]), 99.9%; in assay [4] (setting [6]) it was 0.2%. Further, the EC50 in assay [2] (agonist mode) and in assay [4] (agonist mode) was more than 15100 nM each time. Further, the “rGABA-gated Cl− channel % inh @10 μM” value in the assay on rGABA-gated Cl− channel is 1.6%.

As for `Cc1cc(N2C(=O)C3(CCC3)N(c3ccc(OC4CCN(CCF)CC4)nc3)C2=S)cnc1C#N` [Cpd 78, 5-[8-[6-[[1-(2-fluoroethyl)-4-piperidyl]oxy]-3-pyridyl]-5-oxo-7-thioxo-6,8-diazaspiro[3.4]octan-6-yl]-3-methyl-pyridine-2-carbonitrile], the results for the IC50 in assay [1] (antagonist mode) and in assay [3] (antagonist mode) were 93.3 nM and 22.9 nM, respectively. The Emax in assay [1] (setting [5]) amounted to 101%; in assay [2] (setting [6]), 1.2%; in assay [3] (setting [5]), 100%; in assay [4] (setting [6]), 0%. For the same compound, the EC50 in assay [2] (agonist mode) and in assay [4] (agonist mode) was more than 15100 nM each time. For the same compound, in the assay on rGABA-gated Cl− channel, the “rGABA-gated Cl− channel % inh @10 μM” value is 3.8%.

Turning to `N#Cc1ncc(N2C(=O)C3(CCC3)N(c3ccc4c(cnn4C4CCNCC4)c3)C2=S)cc1C(F)(F)F` [Cpd 119, 5-[5-oxo-8-[1-(4-piperidyl)indazol-5-yl]-7-thioxo-6,8-diazaspiro[3.4]octan-6-yl]-3-(trifluoromethyl)pyridine-2-carbonitrile], the IC50 in assay [1] (antagonist mode) was 537 nM; in assay [3] (antagonist mode) it was 195 nM. The Emax in assay [1] (setting [5]) turned out to be 102%; in assay [2] (setting [6]), 0.1%; in assay [3] (setting [5]) it was 100%; in assay [4] (setting [6]) it was 2.7%. Further, the EC50 in assay [2] (agonist mode) and in assay [4] (agonist mode) was more than 15100 nM each time. The “rGABA-gated Cl− channel % inh @10 μM” value with rGABA-gated Cl− channel worked out at 43.1%.

As to `COCCN1CCC(Oc2ccc(N3C(=S)N(c4cnc(C#N)c(C(F)(F)F)c4)C(=O)C34CCC4)cn2)CC1` [Cpd 61, 5-[8-[6-[[1-(2-methoxyethyl)-4-piperidyl]oxy]-3-pyridyl]-5-oxo-7-thioxo-6,8-diazaspiro[3.4]octan-6-yl]-3-(trifluoromethyl)pyridine-2-carbonitrile], the figures for the IC50 in assay [1] (antagonist mode) and in assay [3] (antagonist mode) were 29.5 nM and 36.3 nM, respectively. For the same compound, the Emax in assay [1] (setting [5]) worked out at 99.2%; in assay [2] (setting [6]), 0.4%; in assay [3] (setting [5]), 98.8%; in assay [4] (setting [6]), 0.3%. In addition, the EC50 in assay [2] (agonist mode) and in assay [4] (agonist mode) was more than 15100 nM in each case. Besides, the “rGABA-gated Cl− channel % inh @10 μM” value in the assay on rGABA-gated Cl− channel worked out at 26.1%.

Consider `CN1CCC(C(=O)c2ccc(N3C(=S)N(c4cnc(C#N)c(C(F)(F)F)c4)C(=O)C34CCC4)cc2)CC1` [Cpd 144, 5-[8-[4-(1-methylpiperidine-4-carbonyl)phenyl]-5-oxo-7-thioxo-6,8-diazaspiro[3.4]octan-6-yl]-3-(trifluoromethyl)pyridine-2-carbonitrile], for which the IC50 in assay [1] (antagonist mode) is 1100 nM; in assay [3] (antagonist mode), 363 nM. Moreover, the Emax came to 98.3% in assay [1] (setting [5]), 0.3% in assay [2] (setting [6]), 99.9% in assay [3] (setting [5]) and 0.6% in assay [4] (setting [6]). For the same compound, the EC50 in assay [2] (agonist mode) and in assay [4] (agonist mode) was more than 15100 nM throughout. Besides, in the assay with rGABA-gated Cl− channel, the “rGABA-gated Cl− channel % inh @10 μM” value was 42.3%.
